In patent US10647752B2, “Polypeptides capable of inhibiting the binding between leptin and Neuropilin-1” (INSERM (Institut National de la Sante et de la Recherche …, priority 2015, dated 2020):
“Also recorded” adds a separate entry of the source.

Columns and labels:
[1] = tested on: Serine/Threonine casein kinase2 (CK2); assay: CK2 inhibition in breast cancer cell lines: NRP-1 and JAK2 phosphorylation and NRP-1/OBR complex formation; type: cell-based; settings: MDA-MB231 / T47D breast cancer cell lines
[2] = target: T1, NRP-1 (Homo sapiens, UniProt O14786); assay: Bio-layer interferometry (BLI) protein:protein interaction with NRP-1; type: binding; settings: for competition between leptin and VEGF for binding to NRP-1: BLI competition experiment; for interaction (binding) with NRP-1 by BLI: recombinant proteins, extracellular domain of recombinant NRP-1 for the peptide
T1 construct: the extracellular domain of the recombinant protein NRP-1 from RnD systems; purchased RnD systems
Experimental: Bio-Layer Interferometry Bio-layer interferometry (BLI) is a label-free technique that is sensitive to an increase of mass bound to the biosensor enabling protein-protein interaction characterization. Ligands preparation: proteins were incubated in a PBS buffer with a 1:3 ratio molar ratio of biotin (biotin-PEG4-NHS from Pierce EZ kit, prepared following the manufacturer's instructions). Free biotin was removed using a desalting column (Pierce). The biotinylated protein (called ligand) was immobilized onto streptavidin biosensor tips and dipped into wells containing the buffer with the analyte of interest (association) or without (dissociation). Experimental conditions were as follow: total volume in each well: 200 μl; shake speed: 1,000 rpm. For simple protein:protein interactions an association phase was followed by a dissociation phase. For competition experiments, the association phase was followed by another association phase with a second analyte instead of a dissociation phase. Sensorgrams were background corrected, smoothed with the Savitzky-Golay algorithm and analyzed using OctetRED instrument software (ForteBio Data Analysis version 7.1). Experimental sensorgrams were first fit to a 1:1 model. The 1:1 model was accepted if the Chi^2 test was below 3 and the R^2 was above 0.9. When the 1:1 model was rejected, the model with the lowest Chi^2 and the highest R^2 was then selected.

[3] = tested on: NRP-1/OBR complex; assay: NRP-1/OBR complex detection in MDA-MB231 breast cancer cell line by proximity ligation assay (PLA); type: cell-based; settings: MDA-MB231 cultivated in normal human serum, Avastin 40 μg/ml for 48 h, compared to untreated cells
Experimental: NRP-1 and OBR Complex Detection in MBA-MB231 Breast Cancer Cell Line by Immunocytochemistry Using a PLA Technology
The detection of NRP-1/OBR complex in human MDA-MB231 breast cancer cell line was assessed by proximity ligation assay (PLA) or duolink technology (www.olink.com). The detection of the NRP-1/OBR complex was assessed on MDA-MB231 cell line cultivated in normal human serum (human male AB plasma, USA origin, MDL number MFCD00165829 H4522 Sigma) and treated or not with Avastin 40 μg/ml final concentration for 48 h. The goal by using human serum was to mimic a physiologic condition during therapy with Avastin. The immunostained samples were analysed by the acquisition of the Z stacks through confocal microscopy on Zeiss LSM 700, Inverted confocal microscope. The acquired images were analyzed using Image J software for the quantification of NRP-1/OBR complex expressed by cells.

[4] = tested on: MDA-MB231 breast cancer cell line; assay: In vitro cell migration of MDA-MB231 breast cancer cell line; type: cell-based, human

| Molecule | NRP-1 and JAK2 phosphorylation [1] | formation of the NRP-1/OBR complex [1] | also measured |
| --- | --- | --- | --- |
| O=C(O)c1ccc2c(c1)nc(Nc1cccc(Cl)c1)c1ccncc12 [CX4945] | prevented | prevented | – |
| leptin: cytokine-like hormone mainly produced by adipocytes; recombinant protein | – | – | competition between leptin and VEGF for binding to NRP-1 [2]: do not compete with VEGF binding; interaction (binding) with NRP-1 by BLI [2]: direct interaction |
| Brc1c(Br)c(Br)c2n[nH]nc2c1Br [TBB] | prevented | prevented | – |
| VEGF | – | – | competition between leptin and VEGF for binding to NRP-1 [2]: does not prevent leptin binding to NRP-1 |
| ENLRDLLHVLAFSKSCHLPWASGLETL (listed as Homo sapiens) [SEQ ID:3] | – | – | interaction (binding) with NRP-1 by BLI [2]: validated by BLI |
| Avastin: Anti-VEGF (bevacizumab) antibody | – | – | number of NRP-1/OBR complex [3]: increase of NRP-1/OBR complex detection; also recorded: high number of NRP-1/OBR complex; cell migration [4]: induces in vitro cell migration; also recorded: increased MDA-MB231 cell migration |
| OC[C@H]1O[C@@H](n2cnc3cc(Cl)c(Cl)cc32)[C@H](O)[C@@H]1O [DRB] | prevented | prevented | – |
